# Structures can show the parent of a compound that is named as a salt.
# How the values were obtained:
# [1] = tested on: cultured human mast cells (CHMC); assay: CHMC low cell density ionomycin activation: tryptase assay; type: cell-based; details: 3 pt, read-out: LD Tryptase, CHMC, Iono, 3 pt
# [2] = tested on: cultured human mast cells (CHMC); assay: CHMC low cell density IgE activation: tryptase assay; type: cell-based; details: IgE activation
# Outline: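 Tryptase release was read from supernatant with a fluorogenic substrate (30 min, room temperature) after anti-IgE challenge of cultured human mast cells (1000–1500 cells/well, low density) for 30 minutes at 37° C.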
# [3] = Homo sapiens, Mast cell, low cell density CHMC, tryptase release
# [4] = Homo sapiens, Mast cell, low cell density CHMC, tryptase release, 3 pt, read-out: LD Tryptase, CHMC, IgE, 3 pt
# [5] = Homo sapiens, Mast cell, low cell density CHMC, tryptase release, 8 pt, read-out: LD Tryptase, CHMC, IgE, 8 pt
Structure (SMILES),"IC50 [1, 3] [µM]","IC50 [2, 4] [µM]","IC50 [2, 5] [µM]",further results
"COCCn1ncc2ccc(Nc3ncc(F)c(Nc4ccc5c(c4)NC(=O)C(C)(C)O5)n3)cc21 [Compound 777, N4-(2,2-Dimethyl-3-oxo-4H-benz[1,4]oxazin-6-yl)-5-fluoro-N2-[1-(2-methoxyethyl)indazol-6-yl]-2,4-pyrimidinediamine]",> 10,< 10,< 10,–
"COCCn1ncc2ccc(Nc3ncc(F)c(Nc4ccc(F)c(OC)c4)n3)cc21 [Compound 778, 5-Fluoro-N4-(4-fluoro-3-methoxyphenyl)-N2-[1-(2-methoxyethyl)indazol-6-yl]-2,4-pyrimidinediamine]",> 10,< 10,–,–
"CC(=O)OCCCn1ncc2cc(Nc3ncc(F)c(Nc4ccc(Cl)c(Cl)c4)n3)ccc21 [Compound 787, N2-[1-(3-Acetyloxypropyl)indazol-5-yl]-N4-(3,4-dichlorophenyl)-5-fluoro-2,4-pyrimidinediamine]",> 10,< 10,< 10,–
"COc1ccc(Nc2nc(Nc3ccc4c(cnn4CCCOC(C)=O)c3)ncc2F)cc1Cl [Compound 788, N2-[1-(3-Acetyloxypropyl)indazol-5-yl]-N4-(3-chloro-4-methoxyphenyl)-5-fluoro-2,4-pyrimidinediamine]",> 10,< 10,< 10,–
"COc1cc(Nc2nc(Nc3ccc4c(cnn4CCCOC(C)=O)c3)ncc2F)ccc1F [Compound 789, N2-[1-(3-Acetyloxypropyl)indazol-5-yl]-5-fluoro-N4-(4-fluoro-3-methoxyphenyl)-2,4-pyrimidinediamine]",> 10,< 10,< 10,–
"CC(=O)OCCCn1ncc2ccc(Nc3ncc(F)c(Nc4ccc(Cl)c(Cl)c4)n3)cc21 [Compound 790, N2-[1-(3-Acetyloxypropyl)indazol-6-yl]-N4-(3,4-dichlorophenyl)-5-fluoro-2,4-pyrimidinediamine]",> 10,< 10,< 10,–
"CC1(C)Oc2ccc(Nc3nc(Nc4ccc5cnn(CCCO)c5c4)ncc3F)cc2NC1=O [Compound 791, N4-(2,2-Dimethyl-3-oxo-4H-benz[1,4]oxazin-6-yl)-5-fluoro-N2-[1-(3-hydroxypropyl)indazol-6-yl]-2,4-pyrimidinediamine]",> 10,< 10,< 10,–
"COCCCn1ncc2cc(Nc3ncc(F)c(Nc4ccc(Cl)c(Cl)c4)n3)ccc21 [Compound 793, N4-(3,4-Dichlorophenyl)-5-fluoro-N2-[1-(3-methoxypropyl)indazol-5-yl]-2,4-pyrimidinediamine]",> 10,< 10,< 10,–
"COCCCn1ncc2cc(Nc3ncc(F)c(Nc4ccc5c(c4)NC(=O)C(C)(C)O5)n3)ccc21 [Compound 794, N4-(2,2-Dimethyl-3-oxo-4H-benz[1,4]oxazin-6-yl)-5-fluoro-N2-[1-(3-methoxypropyl)indazol-5-yl]-2,4-pyrimidinediamine]",> 10,< 10,< 10,–
"COCCCn1ncc2cc(Nc3ncc(F)c(Nc4ccc5c(c4)NC(=O)[C@H](C)O5)n3)ccc21 [Compound 795, (S)-5-Fluoro-N2-[1-(3-methoxypropyl)indazol-5-yl]-N4-(2-methyl-3-oxo-2H,4H-benz[1,4]oxazin-6-yl)-2,4-pyrimidinediamine]",> 10,< 10,< 10,–
"COCCCn1ncc2ccc(Nc3ncc(F)c(Nc4ccc(OC)c(Cl)c4)n3)cc21 [Compound 796, N4-(3-Chloro-4-methoxyphenyl)-5-fluoro-N2-[1-(3-methoxypropyl)indazol-6-yl]-2,4-pyrimidinediamine]",> 10,< 10,< 10,–
"COCCCn1ncc2ccc(Nc3ncc(F)c(Nc4ccc(Cl)c(Cl)c4)n3)cc21 [Compound 797, N4-(3,4-Dichlorophenyl)-5-fluoro-N2-[1-(3-methoxypropyl)indazol-6-yl]-2,4-pyrimidinediamine]",> 10,< 10,< 10,–
"COCCCn1ncc2ccc(Nc3ncc(F)c(Nc4ccc5c(c4)NC(=O)C(C)(C)O5)n3)cc21 [Compound 798, N4-(2,2-Dimethyl-3-oxo-4H-benz[1,4]oxazin-6-yl)-5-fluoro-N2-[1-(3-methoxypropyl)indazol-6-yl]-2,4-pyrimidinediamine]",< 10,< 10,< 10,–
"COCCCn1ncc2ccc(Nc3ncc(F)c(Nc4ccc5c(c4)NC(=O)[C@H](C)O5)n3)cc21 [Compound 799, (S)-5-Fluoro-N2-[1-(3-methoxypropyl)indazol-6-yl]-N4-(2-methyl-3-oxo-2H,4H-benz[1,4]oxazin-6-yl)-2,4-pyrimidinediamine]",> 10,< 10,< 10,–
"CC1(C)Oc2ccc(Nc3nc(Nc4ccc5[nH]c(C(F)(F)F)nc5c4)ncc3F)cc2NC1=O [Compound 802, N4-(2,2-Dimethyl-3-oxo-4H-benz[1,4]oxazin-6-yl)-5-fluoro-N2-(2-trifluoromethyl-1H-benzimidazol-5-yl)-2,4-pyrimidinediamine]",> 10,< 10,< 10,–
"C[C@@H]1Oc2ccc(Nc3nc(Nc4ccc5[nH]c(C(F)(F)F)nc5c4)ncc3F)cc2NC1=O [Compound 803, (S)-5-Fluoro-N4-(2-methyl-3-oxo-2H,4H-benz[1,4]oxazin-6-yl)-N2-(2-trifluoromethyl-1H-benzimidazol-5-yl)-2,4-pyrimidinediamine]",> 10,< 10,< 10,–
"Cc1nc2ccc(Nc3ncc(F)c(Nc4ccc5c(c4)NC(=O)[C@H](C)O5)n3)cc2[nH]1 [Compound 811, (S)-5-Fluoro-N2-(2-methyl-3H-benzimidazol-5-yl)-N4-(2-methyl-3-oxo-2H,4H-benz[1,4]oxazin-6-yl)-2,4-pyrimidinediamine]",> 10,< 10,< 10,–
"COc1ccc(Nc2nc(Nc3ccc4c(cnn4CCCO)c3)ncc2F)cc1Cl [Compound 827, N4-(3-Chloro-4-methoxyphenyl)-5-fluoro-N2-[1-(3-hydroxypropyl)indazol-5-yl]-2,4-pyrimidinediamine p-Toluenesulfonic Acid Salt]",> 10,< 10,–,–
"COc1ccc(Nc2nc(Nc3ccc4c(cnn4CCCNS(C)(=O)=O)c3)ncc2F)cc1Cl [Compound 832, N4-(3-Chloro-4-methoxyphenyl)-5-fluoro-N2-[1-[3-(N-methylsulfonylamino)propyl]indazol-5-yl]-2,4-pyrimidinediamine]",> 10,< 10,< 10,–
"CS(=O)(=O)NCCCn1ncc2cc(Nc3ncc(F)c(Nc4ccc(Cl)c(Cl)c4)n3)ccc21 [Compound 833, N4-(3,4-Dichlorophenyl)-5-fluoro-N2-[1-[3-(N-methylsulfonylamino)propyl]indazol-5-yl]-2,4-pyrimidinediamine]",> 10,< 10,< 10,–
"CC1(C)Oc2ccc(Nc3nc(Nc4ccc5c(cnn5CCCNS(C)(=O)=O)c4)ncc3F)cc2NC1=O [Compound 834, N4-(2,2-Dimethyl-3-oxo-4H-benz[1,4]oxazin-6-yl)-5-fluoro-N2-[1-[3-(N-methylsulfonylamino)propyl]indazol-5-yl]-2,4-pyrimidinediamine]",> 10,> 10,< 10,–
"C[C@@H]1Oc2ccc(Nc3nc(Nc4ccc5c(cnn5CCCNS(C)(=O)=O)c4)ncc3F)cc2NC1=O [Compound 835, (S)-5-Fluoro-N4-(2-methyl-3-oxo-2H,4H-benz[1,4]oxazin-6-yl)-N2-[1-(3-(N-methylsulfonylamino)propyl)indazol-5-yl]-2,4-pyrimidinediamine]",> 10,< 10,< 10,–
"CC1(C)Oc2ccc(Nc3nc(Nc4ccc5c(cnn5CCCNS(C)(=O)=O)c4)ncc3F)nc2NC1=O [Compound 836, N4-(2,2-Dimethyl-3-oxo-4H-5-pyrid[1,4]oxazin-6-yl)-5-fluoro-N2-[1-[3-(N-methylsulfonylamino)propyl]indazol-5-yl]-2,4-pyrimidinediamine]",–,–,–,"IC50 ([1]; low cell density CHMC, tryptase release): > 10 µM; IC50 ([2]; low cell density CHMC, tryptase release, 3 pt, read-out: LD Tryptase, CHMC, IgE, 3 pt): < 10 µM; IC50 ([2]; low cell density CHMC, tryptase release, 8 pt, read-out: LD Tryptase, CHMC, IgE, 8 pt): < 10 µM"
"Cc1nc2ccc(Nc3ncc(F)c(Nc4ccc5c(n4)NC(=O)C(C)(C)O5)n3)cc2[nH]1 [Compound 845, N4-(2,2-Dimethyl-3-oxo-4H-5-pyrid[1,4]oxazin-6-yl)-5-fluoro-N2-(2-methyl-3H-benzimidazol-5-yl)-2,4-pyrimidinediamine]",< 10,–,< 10,–
"CC1(C)Oc2ccc(Nc3nc(Nc4ccc5[nH]c(C(F)(F)F)nc5c4)ncc3F)nc2NC1=O [Compound 846, N4-(2,2-Dimethyl-3-oxo-4H-5-pyrid[1,4]oxazin-6-yl)-5-fluoro-N2-(2-trifluoromethyl-1H-benzimidazol-5-yl)-2,4-pyrimidinediamine]",< 10,–,< 10,–
"Cn1ncc2ccc(Nc3ncc(F)c(Nc4ccc5c(c4)NC(=O)C(C)(C)O5)n3)cc21 [Compound 993, N4-(2,2-Dimethyl-3-oxo-4H-benz[1,4]oxazin-6-yl)-5-fluoro-N2-(1-methylindazol-6-yl)-2,4-pyrimidinediamine p-Toluenesulfonic Acid Salt]",–,–,–,"IC50 ([1]; Homo sapiens, Mast cell, low cell density): < 10 µM; IC50 ([2]; Homo sapiens, Mast cell, low cell density, 3 pt, read-out: LD Tryptase, CHMC, IgE, 3 pt): < 10 µM; IC50 ([2]; Homo sapiens, Mast cell, low cell density, 8 pt, read-out: LD Tryptase, CHMC, IgE, 8 pt): < 10 µM"
